From article PMC10974290, “Biocatalytic Synthesis of Coumarin S-Glycosides: Towards Non-Cytotoxic Probes for Biomedical Imaging and Sensing” (Molecules, 2024)

How the values were obtained:
[1] = test system: SK-MEL-28 (melanoma skin cancer); experiment: MTT cell proliferation assay, SK-MEL-28; format: cell-based; conditions: Homo sapiens, 72 h incubation, 95% confidence interval in parentheses
Experimental: (§1) To use these S-glycosidic compounds in cellulo, the potential impact of the glycosidic linkage nature on the anticancer activity was assessed. The S-glycoside derivatives and the 7-MC were tested against four human cancer cell lines and a healthy one, namely A549 (lung carcinoma), HS-683 (glioma cancer), MCF-7 (breast adenocarcinoma), SK-MEL-28 (melanoma skin cancer), and HaCaT (keratinocyte normal skin), using MTT (thiazolyl blue tetrazolium bromide, Sigma-Aldrich, St. Louis, MO, USA) assay, as previously described in the literature. The selected reference drugs were 5-fluorouracil (5-FU) and etoposide.
(§2) Cell proliferation of five distinct cell lines was evaluated using the colorimetric MTT (thiazolyl blue tetrazolium bromide, Sigma) assay. Human keratinocyte normal skin HaCaT was cultivated in DMEM supplemented with 4.5 g/L glucose, 2 mM L-glutamine, and 10% FBS. Cancer cell lines and their respective growth media were obtained from CLS Cell Line Service GmbH (Eppelheim, Germany). Specifically, human skin melanoma SK-MEL-28 and human brain glioma HS683 were cultivated in DMEM with identical supplements as HaCaT cells. The human lung carcinoma cell line A-549 was grown in DMEM/Ham’s F12 (1:1) medium supplemented with 2 mM L-glutamine and 5% FBS. Additionally, human breast adenoma carcinoma MCF-7 cells were sustained in EMEM supplemented with 2 mM L-glutamine, sodium pyruvate, non-essential amino acids (NEAAs), 10 µg/mL insulin human, and 10% FBS. The MTT assay relies on the reduction of the yellow product thiazolyl blue tetrazolium bromide (MTT) to formazan, a purple-blue product, by mitochondrial dehydrogenases in metabolically active cells. The number of living cells after incubation in the presence (or absence, control) of the tested molecules is directly proportional to the blue color, which was measured by spectrophotometry. To perform the assay, cells were initially seeded at a density of 2500 cells/mL in 96-well culture plates (Nunc™ Edge 2.0, Fisher) and allowed to adhere and proliferate over a 24-hour incubation period. Following this, the cells were treated with various concentrations of the tested compounds, which were previously prepared as serial dilutions and dissolved in 0.1% DMSO. These stable solutions guarantee the consistency of experimental conditions over extended periods. Each concentration of the tested compounds underwent triplicate testing (n = 3), and cells were subsequently incubated for 72 h to allow for thorough evaluation. Following this incubation period, MTT reagent (5 mg/mL solution in PBS) was introduced to each well (10% v/v), and cells were further incubated for 4 h. Then, the culture medium was carefully removed, and the resulting blue formazan crystals were dissolved in 100 µL of 100% DMSO. Absorbance readings were taken at 540 nm, referencing a wavelength of 620 nm, using a spectrophotometer. In determining the IC50, the absorbance of serial dilutions of each cell line, treated under identical conditions but without the presence of the tested compounds, was measured.

[2] = test system: MCF-7 (breast adenocarcinoma); experiment: MTT cell proliferation assay, MCF-7; format: cell-based; conditions: Homo sapiens, MCF7, 72 h incubation, 95% confidence interval in parentheses
Experimental: as §1, §2

[3] = test system: A-549 (lung carcinoma); experiment: MTT cell proliferation assay, A-549; format: cell-based, human; conditions: 72 h incubation, 95% confidence interval in parentheses
Experimental: as §1, with “literature.” for “literature. The selected reference drugs were 5-fluorouracil (5-FU) and etoposide.”
as §2, with “These stable solutions guarantee the consistency of experimental conditions over extended periods.” left out

[4] = test system: HS683 (brain glioma); experiment: MTT cell proliferation assay, HS683; format: cell-based; conditions: Homo sapiens, Hs 683, 72 h incubation, 95% confidence interval in parentheses
Experimental: as §1, §2

| SMILES | IC50 [1] [mM] | IC50 [2] [mM] | IC50 ([3]; Homo sapiens, A549, 72 h) [mM] | IC50 [4] [mM] | IC50 [3] [mM] |
| --- | --- | --- | --- | --- | --- |
| Cc1cc(=O)oc2cc(S[C@@H]3O[C@H](C)[C@H](O)[C@H](O)[C@H]3O)ccc12 [Compound S-5, 4-Methylumbellifer-7-yl 1-thio-β-D-fucopyranoside] | > 1 | > 1 | > 1 | > 1 | – |
| Cc1cc(=O)oc2cc(S[C@@H]3O[C@H](CO)[C@@H](O)[C@H](O)[C@H]3O)ccc12 [Compound S-3, 4-Methylumbellifer-7-yl 1-thio-β-D-glucopyranoside] | > 1 | > 1 | > 1 | > 1 | – |
| Cc1cc(=O)oc2cc(S)ccc12 [Compound 7-MC, 7-mercapto-4-methylcoumarin, reference compound] | 0.306 | > 1 | > 1 | – | – |
| Cc1cc(=O)oc2cc(S[C@@H]3O[C@H](C(=O)O)[C@@H](O)[C@H](O)[C@H]3O)ccc12 [Compound S-1, 4-Methylumbellifer-7-yl 1-thio-β-D-glucopyranosiduronic acid] | > 1 | > 1 | > 1 | > 1 | – |
| Cc1cc(=O)oc2cc(S[C@@H]3OC[C@@H](O)[C@H](O)[C@H]3O)ccc12 [Compound S-2, 4-Methylumbellifer-7-yl 1-thio-β-D-xylopyranoside] | 0.228 | 0.128 | 0.074 | 0.275 | 0.0748 |
| Cc1cc(=O)oc2cc(S[C@H]3O[C@H](CO)[C@H](O)[C@H](O)[C@H]3O)ccc12 [Compound S-6, 4-Methylumbellifer-7-yl 1-thio-α-D-galactopyranoside] | > 1 | > 1 | > 1 | > 1 | – |
| Cc1cc(=O)oc2cc(S[C@@H]3O[C@H](CO)[C@H](O)[C@H](O)[C@H]3O)ccc12 [Compound S-4, 4-Methylumbellifer-7-yl 1-thio-β-D-galactopyranoside] | > 1 | > 1 | > 1 | > 1 | – |
